Results published in the kinase profiling compilation of Christmann-Franck et al. (2016).

Assays:
Experiment in all cases: KINOMEscan competition binding
Settings in all cases: compound 10.0 µM
[1] = system: BMX (human), P51813 [V600E]
[2] = system: EGFR (human), P00533 [A750P; 747-749 del]
[3] = system: EGFR (human), P00533 [G719C]
[4] = system: EGFR (human), P00533 [L858R]
[5] = system: FGFR3 (human), P22607 [G697C]
[6] = system: FLT3 (human), P36888 [D835Y]
[7] = system: KIT (human), P10721 [A829P]
[8] = system: KIT (human), P10721 [D816H]
[9] = system: LRRK2 (human), Q5S007 [G2019S]
[10] = system: MET (human), P08581 [M1250T]
[11] = system: RET (human), P07949 [V804L]
[12] = system: PIK3CA (human), P42336 [E542K]
[13] = system: PIK3CA (human), P42336 [H1047L]
[14] = system: PIK3CA (human), P42336 [M1043I]
Chain of PIK3CA (human), P42336 [M1043I] (P42336 whole entry M1043I, looked up): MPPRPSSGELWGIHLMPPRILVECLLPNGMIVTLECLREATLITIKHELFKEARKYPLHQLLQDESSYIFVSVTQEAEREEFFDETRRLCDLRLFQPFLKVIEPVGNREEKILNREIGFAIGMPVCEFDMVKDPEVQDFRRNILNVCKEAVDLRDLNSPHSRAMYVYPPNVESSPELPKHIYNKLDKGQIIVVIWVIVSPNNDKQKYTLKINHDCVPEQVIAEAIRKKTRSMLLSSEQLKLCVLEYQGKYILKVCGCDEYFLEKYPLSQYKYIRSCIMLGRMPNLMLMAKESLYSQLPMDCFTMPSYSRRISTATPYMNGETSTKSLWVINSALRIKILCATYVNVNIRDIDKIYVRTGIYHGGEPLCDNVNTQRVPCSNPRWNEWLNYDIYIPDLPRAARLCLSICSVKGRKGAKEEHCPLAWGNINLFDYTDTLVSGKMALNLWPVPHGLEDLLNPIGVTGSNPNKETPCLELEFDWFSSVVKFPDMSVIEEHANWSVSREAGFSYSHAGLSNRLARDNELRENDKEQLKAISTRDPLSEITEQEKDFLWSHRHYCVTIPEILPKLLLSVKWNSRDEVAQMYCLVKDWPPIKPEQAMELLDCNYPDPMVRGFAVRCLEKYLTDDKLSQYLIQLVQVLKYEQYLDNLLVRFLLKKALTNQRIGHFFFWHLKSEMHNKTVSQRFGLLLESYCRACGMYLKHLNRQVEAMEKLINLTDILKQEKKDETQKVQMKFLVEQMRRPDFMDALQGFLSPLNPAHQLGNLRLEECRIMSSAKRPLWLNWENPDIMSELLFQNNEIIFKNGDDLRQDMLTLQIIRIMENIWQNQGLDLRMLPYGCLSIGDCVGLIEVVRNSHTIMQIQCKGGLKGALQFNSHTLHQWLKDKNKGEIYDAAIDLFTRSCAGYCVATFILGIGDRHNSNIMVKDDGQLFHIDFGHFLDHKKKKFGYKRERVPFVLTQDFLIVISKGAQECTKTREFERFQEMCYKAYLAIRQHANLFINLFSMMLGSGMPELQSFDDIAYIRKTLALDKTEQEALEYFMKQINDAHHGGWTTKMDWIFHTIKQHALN

Chain of KIT (human), P10721 [D816H] (P10721 whole entry D816H, looked up): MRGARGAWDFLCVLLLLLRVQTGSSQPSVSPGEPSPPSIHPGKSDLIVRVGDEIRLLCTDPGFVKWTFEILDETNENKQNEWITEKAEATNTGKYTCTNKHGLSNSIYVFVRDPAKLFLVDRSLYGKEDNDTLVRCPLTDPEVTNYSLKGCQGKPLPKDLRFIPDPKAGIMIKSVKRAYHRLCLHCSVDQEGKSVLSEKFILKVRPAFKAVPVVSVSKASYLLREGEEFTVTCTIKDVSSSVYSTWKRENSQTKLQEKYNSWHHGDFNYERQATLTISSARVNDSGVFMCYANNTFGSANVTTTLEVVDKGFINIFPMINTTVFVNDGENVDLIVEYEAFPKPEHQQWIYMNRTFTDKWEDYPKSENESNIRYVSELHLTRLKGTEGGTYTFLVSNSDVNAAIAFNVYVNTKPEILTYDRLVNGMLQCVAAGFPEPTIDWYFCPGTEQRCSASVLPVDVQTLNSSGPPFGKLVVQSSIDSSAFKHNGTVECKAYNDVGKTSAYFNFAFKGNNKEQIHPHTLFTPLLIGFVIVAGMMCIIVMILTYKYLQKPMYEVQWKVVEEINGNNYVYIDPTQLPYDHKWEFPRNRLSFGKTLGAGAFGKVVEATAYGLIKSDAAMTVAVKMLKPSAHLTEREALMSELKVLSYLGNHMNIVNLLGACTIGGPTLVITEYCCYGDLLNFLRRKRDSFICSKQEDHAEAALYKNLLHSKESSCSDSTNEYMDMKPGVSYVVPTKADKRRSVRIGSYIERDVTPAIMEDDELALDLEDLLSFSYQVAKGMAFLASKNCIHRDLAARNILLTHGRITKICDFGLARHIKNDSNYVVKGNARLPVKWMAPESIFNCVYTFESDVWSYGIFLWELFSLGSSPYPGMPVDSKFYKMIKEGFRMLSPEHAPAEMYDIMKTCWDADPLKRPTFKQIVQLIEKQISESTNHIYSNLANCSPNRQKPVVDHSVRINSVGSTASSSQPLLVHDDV
Chain of LRRK2 (human), Q5S007 [G2019S] (Q5S007 whole entry G2019S, looked up): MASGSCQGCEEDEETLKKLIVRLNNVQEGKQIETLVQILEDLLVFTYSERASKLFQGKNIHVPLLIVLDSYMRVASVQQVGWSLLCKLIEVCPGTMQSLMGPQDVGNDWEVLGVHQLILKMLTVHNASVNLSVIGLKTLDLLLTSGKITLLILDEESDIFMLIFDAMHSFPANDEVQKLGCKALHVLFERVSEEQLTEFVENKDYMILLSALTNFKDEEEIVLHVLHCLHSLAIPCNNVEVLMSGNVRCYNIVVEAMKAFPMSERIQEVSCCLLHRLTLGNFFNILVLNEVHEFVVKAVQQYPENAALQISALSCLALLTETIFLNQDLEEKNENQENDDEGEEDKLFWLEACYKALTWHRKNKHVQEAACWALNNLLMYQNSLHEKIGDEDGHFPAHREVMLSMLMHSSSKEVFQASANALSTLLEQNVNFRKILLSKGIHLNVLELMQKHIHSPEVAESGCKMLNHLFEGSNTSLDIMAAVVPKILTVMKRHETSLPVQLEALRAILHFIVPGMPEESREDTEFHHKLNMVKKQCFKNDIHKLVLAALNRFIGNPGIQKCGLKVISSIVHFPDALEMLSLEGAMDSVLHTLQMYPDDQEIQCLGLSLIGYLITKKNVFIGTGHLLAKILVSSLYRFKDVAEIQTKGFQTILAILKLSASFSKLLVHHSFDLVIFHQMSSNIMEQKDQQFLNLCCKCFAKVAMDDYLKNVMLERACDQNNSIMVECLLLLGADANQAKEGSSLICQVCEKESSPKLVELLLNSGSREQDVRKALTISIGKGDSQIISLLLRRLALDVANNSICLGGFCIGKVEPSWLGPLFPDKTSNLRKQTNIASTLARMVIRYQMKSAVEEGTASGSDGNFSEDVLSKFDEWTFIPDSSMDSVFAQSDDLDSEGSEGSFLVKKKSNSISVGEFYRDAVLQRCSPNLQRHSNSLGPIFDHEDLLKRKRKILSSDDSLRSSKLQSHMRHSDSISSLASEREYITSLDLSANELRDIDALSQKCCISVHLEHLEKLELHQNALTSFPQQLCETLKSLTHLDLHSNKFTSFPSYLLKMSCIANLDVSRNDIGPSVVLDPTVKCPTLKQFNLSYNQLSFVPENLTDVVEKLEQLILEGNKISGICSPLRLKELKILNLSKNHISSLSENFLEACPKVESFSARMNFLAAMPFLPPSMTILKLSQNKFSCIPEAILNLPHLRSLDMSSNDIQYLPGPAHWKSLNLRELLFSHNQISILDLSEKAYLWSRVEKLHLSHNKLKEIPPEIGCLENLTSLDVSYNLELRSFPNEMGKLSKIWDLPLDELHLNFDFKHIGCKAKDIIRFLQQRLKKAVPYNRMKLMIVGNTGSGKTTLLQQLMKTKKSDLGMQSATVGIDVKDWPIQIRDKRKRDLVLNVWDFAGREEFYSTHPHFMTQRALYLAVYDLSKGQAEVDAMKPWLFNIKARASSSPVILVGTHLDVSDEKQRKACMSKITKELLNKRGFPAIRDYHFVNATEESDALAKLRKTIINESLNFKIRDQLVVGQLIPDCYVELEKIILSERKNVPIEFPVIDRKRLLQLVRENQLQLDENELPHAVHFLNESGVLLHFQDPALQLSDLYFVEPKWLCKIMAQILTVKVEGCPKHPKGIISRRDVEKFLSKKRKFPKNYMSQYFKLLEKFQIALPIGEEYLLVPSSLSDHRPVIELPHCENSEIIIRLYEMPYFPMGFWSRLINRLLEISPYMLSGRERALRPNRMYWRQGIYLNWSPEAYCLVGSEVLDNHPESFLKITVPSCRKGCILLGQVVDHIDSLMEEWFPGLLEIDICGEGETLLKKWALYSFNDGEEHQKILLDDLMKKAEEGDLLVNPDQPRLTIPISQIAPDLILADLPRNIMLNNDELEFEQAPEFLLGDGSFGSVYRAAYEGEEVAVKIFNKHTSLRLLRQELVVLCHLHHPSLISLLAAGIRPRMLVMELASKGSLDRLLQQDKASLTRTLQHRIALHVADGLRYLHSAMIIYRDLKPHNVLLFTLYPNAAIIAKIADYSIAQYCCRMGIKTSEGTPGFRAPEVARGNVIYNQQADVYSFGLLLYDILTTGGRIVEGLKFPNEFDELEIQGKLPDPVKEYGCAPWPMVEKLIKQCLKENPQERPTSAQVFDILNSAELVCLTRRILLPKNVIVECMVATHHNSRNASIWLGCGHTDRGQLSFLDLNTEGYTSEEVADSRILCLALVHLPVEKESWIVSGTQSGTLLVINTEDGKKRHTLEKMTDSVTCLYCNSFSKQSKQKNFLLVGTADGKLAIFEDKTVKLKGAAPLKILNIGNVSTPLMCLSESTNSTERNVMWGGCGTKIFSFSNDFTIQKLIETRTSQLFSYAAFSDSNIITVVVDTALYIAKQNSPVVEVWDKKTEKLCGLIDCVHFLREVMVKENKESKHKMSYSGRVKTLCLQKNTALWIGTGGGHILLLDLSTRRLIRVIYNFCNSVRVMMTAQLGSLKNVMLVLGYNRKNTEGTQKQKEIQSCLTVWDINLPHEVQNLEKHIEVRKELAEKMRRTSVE
Chain of PIK3CA (human), P42336 [E542K] (P42336 whole entry E542K, looked up): as the sequence (P42336 whole entry M1043I, looked up) above, with E542K, I1043M counted along it
Chain of PIK3CA (human), P42336 [H1047L] (P42336 whole entry H1047L, looked up): as the sequence (P42336 whole entry M1043I, looked up) above, with I1043M, H1047L counted along it
Chain of KIT (human), P10721 [A829P] (P10721 whole entry A829P, looked up): as the sequence (P10721 whole entry D816H, looked up) above, with H816D, A829P counted along it

Structure (SMILES)	kinase still bound, per cent of control [1] [%]	kinase still bound, per cent of control [2] [%]	kinase still bound, per cent of control [3] [%]	kinase still bound, per cent of control [4] [%]	kinase still bound, per cent of control [5] [%]	kinase still bound, per cent of control [6] [%]	kinase still bound, per cent of control [7] [%]	kinase still bound, per cent of control [8] [%]	kinase still bound, per cent of control [9] [%]	kinase still bound, per cent of control [10] [%]	kinase still bound, per cent of control [11] [%]	kinase still bound, per cent of control [12] [%]	kinase still bound, per cent of control [13] [%]	kinase still bound, per cent of control [14] [%]
Cc1cc([C@@H](C)Nc2ccccc2C(=O)O)c2nc(N3CCOCC3)cc(=O)n2c1	92	100	95	100	100	54	100	88	100	87	99			
O=C1NC(=O)/C(=C/c2ccc3nccc(-c4ccncc4)c3c2)S1	41	47	54	43	100	28	88	89	58	40	100	0.2	27	0
O=C1Nc2ccc(I)cc2/C1=C/c1cc(Br)c(O)c(Br)c1	0.1	36	80	32	76	13	93	99	9	80	100	84	97	76
C[C@@H](Oc1cc(-n2cnc3ccc(CN4CCN(C)CC4)cc32)sc1C(N)=O)c1ccccc1C(F)(F)F	58	81	100	86	75	21	29	40	40	93	100	91	16	63
CCN1CCN(C(=O)Cc2ccc(Nc3ncc(F)c(Nc4ccc(C(=O)Nc5ccccc5Cl)cc4)n3)cc2)CC1	43	11	46	28	21	0.15	64	25	53	11	3.2	84	100	100
CCCS(=O)(=O)Nc1ccc(F)c(C(=O)c2c[nH]c3ncc(-c4ccc(Cl)cc4)cc23)c1F	0.2	74	28		100		89	98	70	25	90	100	95	
O=C(O)c1ccc(Nc2ncc3c(n2)-c2ccc(Cl)cc2C(c2c(F)cccc2F)=NC3)cc1		28	77	29	12	72	100		100	58	88		79	
COc1cc(C(=O)N2CCC(N3CCN(C)CC3)CC2)ccc1Nc1ncc2c(n1)N(C)c1ccccc1C(=O)N2C	100	78	100	79	85	100	100	100	5	96	89	77	20	65
NC(=O)Nc1cc(-c2cccc(F)c2)sc1C(=O)N[C@@H]1CCCNC1	89	0.65	0.05	2.2	22	0.1			4.2	4.7	0	100	100	100
O=C(NOC[C@H](O)CO)c1ccc(F)c(F)c1Nc1ccc(I)cc1F	100		86	79	88	100		91	100	92	93	57	45	42
Nc1ccc(-c2ccc3ncc4ccc(=O)n(-c5cccc(C(F)(F)F)c5)c4c3c2)cn1	95	100	71	100	89	32	64	80	81	100	100		0	
C[C@@H](Oc1cc(-c2cnn(C3CCNCC3)c2)cnc1N)c1c(Cl)ccc(F)c1Cl					27	11	35	50	57			100	48	
CCN(CC)CCCCNc1ncc2cc(-c3cc(OC)cc(OC)c3)c(NC(=O)NC(C)(C)C)nc2n1	100				3.7	100								
COCC(=O)NC/C=C/c1ccc2ncnc(Nc3ccc(Oc4ccc(C)nc4)c(C)c3)c2c1	80				90			100	98	100	100	100	100	100
N#Cc1c(NC(=O)c2cccc3ccccc23)sc2c1CCCC2	93				83	80	87	85	94	100	90	100	70	100
CNC(=O)c1cc(Oc2ccc(NC(=O)Nc3ccc(Cl)c(C(F)(F)F)c3)cc2)ccn1	0.05				39	3.2	59	36		83	0.1			
Cc1ccc2nc(NCCN)c3ncc(C)n3c2c1	60	100			100	97		100		100	100	100	100	100
